{
  "source": "patent US20240101600A1",
  "about": "“FIBROBLAST GROWTH FACTOR RECEPTOR (FGFR)-TARGETING ANTAGONISTIC SHORT PEPTIDE” (WENZHOU MEDICAL UNIVERSITY, priority 2019, published 2024)",
  "key": {"B16-F10 cells": {"system": "B16-F10 cells", "assay": "MTT viability, B16-F10 cells", "assay_type": "cell-based", "conditions": "48 h with bFGF", "description": "In vitro anti-tumor activity of a short peptide compound P48 Hela229 (1500 cells/100 μl), B16-F10 (1000 cells/100 μl), NCI-H460 (4000 cells/100 μl) and SGC7901 (4000 cells/100 μl) cells were inoculated in 96-well plates. After incubated overnight adherently, the original medium was replaced with a Dulbecco's modified eagle medium (DMEM) containing 0.1% fetal bovine serum (FBS) or a Roswell Park Memorial Institute 1640 (RPMI-1640) medium containing 0.1% FBS, and culture was continued for 24 h. A mixture of P48 and bFGF, or bFGF alone were added into corresponding wells, and incubated for 48 h; an MTT solution (5 mg/mL) prepared by PBS was added to the cells in each well at 37° C., and treated for 4 h. The MTT was removed by aspiration, 150 μL of DMSO was added to each well, shaking was conducted for 10 min, and an optical density (OD) value was quantified with a microplate reader (SpectraMax M2/M2e, Molecular Devices, Sunnyvale, USA) at a wavelength of 490 nm. The percentage of drug growth inhibition rate was calculated by comparing with the bFGF group. […] The experimental procedure was as follows: 10% FBS-containing medium (500 μl) was added to a lower surface of a transwell insertion chamber, the cells together with the drug were inoculated into an upper chamber, and cultured with a serum-free medium (200 μl). […]"}, "FGFR1 [1]": {"target": "FGFR1 (Mus musculus, UniProt P16092)", "sequence (P16092 22-822)": "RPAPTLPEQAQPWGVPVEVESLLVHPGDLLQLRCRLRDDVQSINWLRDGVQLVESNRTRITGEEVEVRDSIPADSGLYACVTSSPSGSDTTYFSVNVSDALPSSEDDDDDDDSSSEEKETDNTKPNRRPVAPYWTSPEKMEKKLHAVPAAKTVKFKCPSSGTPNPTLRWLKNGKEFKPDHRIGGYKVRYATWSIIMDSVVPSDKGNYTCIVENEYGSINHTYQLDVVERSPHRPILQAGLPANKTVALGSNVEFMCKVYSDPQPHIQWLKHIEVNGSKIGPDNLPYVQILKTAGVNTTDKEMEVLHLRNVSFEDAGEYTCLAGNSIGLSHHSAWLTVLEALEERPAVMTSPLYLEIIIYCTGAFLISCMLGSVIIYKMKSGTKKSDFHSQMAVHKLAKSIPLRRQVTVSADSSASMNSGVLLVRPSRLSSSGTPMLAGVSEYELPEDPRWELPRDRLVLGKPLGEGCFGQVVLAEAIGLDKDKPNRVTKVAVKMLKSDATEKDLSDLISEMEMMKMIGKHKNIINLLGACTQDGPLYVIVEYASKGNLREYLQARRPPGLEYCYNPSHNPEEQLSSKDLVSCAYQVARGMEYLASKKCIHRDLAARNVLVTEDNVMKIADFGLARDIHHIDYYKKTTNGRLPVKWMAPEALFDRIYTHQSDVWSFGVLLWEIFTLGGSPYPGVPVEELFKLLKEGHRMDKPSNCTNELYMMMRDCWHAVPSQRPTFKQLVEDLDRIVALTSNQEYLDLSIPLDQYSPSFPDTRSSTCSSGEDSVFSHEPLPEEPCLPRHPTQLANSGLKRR", "assay": "Western blot of bFGF-induced FGFR1 activation in Balb/c 3T3 fibroblasts", "assay_type": "cell-based", "set-up": "endogenous in cells; host or cells: MEF-WT; Balb/c 3T3", "conditions": "P48 pretreatment 10 min, bFGF 15 min", "description": "Human embryonic kidney cells HEK-293, fibroblasts MEF-WT and Balb/c 3T3 were inoculated into 6-well plates, respectively. After growing adherently overnight, the cells were pretreated with P48 for 10 min or with AZD4547/PD173074/SSR for 2 h, and incubated with bFGF for 15 min. […] The experimental procedure was as follows: MEF-WT and MEFKO (FGFR1-FGFR2-FRS2a) cells (1×10^6 cells/ml) were inoculated in a 35 mm petri dish. After being adhered to the wall of petri dish overnight, the cells were washed with PBS; FITC-conjugated P48 (1, 10, 100 and 1000 nM) was added, and the cells were incubated in an incubator for 30 min. The cells were immobilized with 1% paraformaldehyde in the dark and washed with PBS. An expression level of the FITC was measured at a fluorescence channel 1 (FL-1) (530 nm), with an excitation wavelength of 488 nm. Data analysis was conducted using CellQuest software (Becton Dickinson)."}, "[2]": {"assay": "Half-life of peptides in human plasma (incubation, SPE, liquid chromatography)", "assay_type": "in vitro ADME", "conditions": "compared with precursor peptide P9"}, "FGFR1 [3]": {"target": "FGFR1 (Homo sapiens, UniProt P11362)", "sequence (P11362 22-822)": "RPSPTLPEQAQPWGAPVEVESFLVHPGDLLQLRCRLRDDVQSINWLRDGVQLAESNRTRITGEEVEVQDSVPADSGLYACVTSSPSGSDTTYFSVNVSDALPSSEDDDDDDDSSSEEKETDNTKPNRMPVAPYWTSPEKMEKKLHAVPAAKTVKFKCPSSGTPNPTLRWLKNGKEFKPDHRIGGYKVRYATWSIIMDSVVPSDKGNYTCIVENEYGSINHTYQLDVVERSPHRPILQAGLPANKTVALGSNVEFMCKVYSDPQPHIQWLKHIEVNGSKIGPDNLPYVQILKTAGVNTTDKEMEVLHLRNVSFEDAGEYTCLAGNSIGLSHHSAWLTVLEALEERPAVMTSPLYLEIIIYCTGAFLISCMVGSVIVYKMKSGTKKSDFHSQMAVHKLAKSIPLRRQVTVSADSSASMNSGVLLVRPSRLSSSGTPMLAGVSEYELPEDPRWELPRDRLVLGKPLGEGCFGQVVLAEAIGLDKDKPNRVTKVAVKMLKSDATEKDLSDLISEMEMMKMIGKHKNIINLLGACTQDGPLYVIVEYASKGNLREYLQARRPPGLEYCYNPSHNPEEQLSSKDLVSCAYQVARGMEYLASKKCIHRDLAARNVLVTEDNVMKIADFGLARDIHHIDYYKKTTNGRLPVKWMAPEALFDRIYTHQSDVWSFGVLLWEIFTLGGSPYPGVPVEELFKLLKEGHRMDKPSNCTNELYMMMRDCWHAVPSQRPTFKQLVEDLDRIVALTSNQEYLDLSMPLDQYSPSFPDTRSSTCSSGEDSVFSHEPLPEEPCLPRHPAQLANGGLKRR", "assay": "Western blot of FGFR1 signaling pathway in cervical cancer cells Hela229", "assay_type": "cell-based", "set-up": "endogenous in cells; host or cells: Hela229; NCI-H460; SGC-7901; MGC-803", "conditions": "bFGF stimulation", "description": "Cervical cancer cells Hela229, melanoma B16-F10, lung cancer cells NCI-H460, gastric cancer cells SGC-7901 and MGC-803 were inoculated into 6-well plates, respectively. After growing adherently overnight, the cells were pretreated with P48 for 10 min or with AZD4547/SSR for 2 h, and incubated with bFGF for 15 min or with KGF for 20 min."}},
  "note": "Where no end group is shown, it is not given here.",
  "data": [
    {"substance": "SPPRYPGGGS-NH2 [P48, Ser-Pro-Pro-Arg-Tyr-Pro-Gly-Gly-Gly-Ser-NH2]", "values": [
      {"measurement": "inhibition of cancer cell viability", "setting": "B16-F10 cells", "value": "can significantly inhibit the viability of cancer cells"},
      {"measurement": "inhibition of FGFR1 activation induced by bFGF", "setting": "FGFR1 [1]", "value": "can inhibit activation of FGFR1 induced by bFGF in a concentration-dependent manner"},
      {"measurement": "half-life in plasma", "setting": "[2]", "value": "relatively prolonged half-life"},
      {"measurement": "inhibition of FGFR1 signaling pathway", "setting": "FGFR1 [3]", "value": "can inhibit the FGFR1 signaling pathway of cervical cancer, melanoma, lung cancer and gastric cancer in a concentration-dependent manner"}
    ]}
  ]
}
